Columns and labels:
fungi = assay: antifungal efficacy of formulated phenolics; conditions: formulated per invention vs conventional
Text: The antifungal efficacy of these phenolics is improved by formulation in accordance with this invention.

P. aeruginosa = conditions: reference tests and manufacturer's literature; cited from earlier work
Ceratocystis pilifera = assay: sugar cane pineapple disease emergence test; assay type: in vivo; conditions: 56 days
Procedure: The following composition was prepared and evaluated for control of pineapple disease of sugar cane (Ceratocystis pilifera):
Sugar cane seed was treated with this solution as diluted with a water carrier. Seed also was treated with benomyl, thiophanate methyl, Panoctine (9-aza-1,17-diquanidinoheptadecane triacetate), hot water and cold water. The results are tabulated below:
(2) Prior to planting, the seed was inoculated with the causal disease
organism, Ceratocystis pilifera. Emergence data was collected 56 days

human skin = assay: skin irritation on human subjects; assay type: in vivo; conditions: undiluted on hands
Procedure: These compositions were tested for skin irritation by rubbing 2 ml of each onto the hands of six test subjects. After 60 seconds, Compositions A, B and C were rinsed off the hands with water. […] The results with Compositions D and E were observably different.
The two compositions were tested for skin irritation by placing two drops of one composition on the skin at the inside of one elbow of five test subjects and two drops of the other composition on the same spot on the other elbow of each subject. In all cases, the composition was smeared over about a one-half square inch of skin and the subjects' reactions were noted over a 20-minute test period.
The compositions were tested on three subjects for skin irritation by spreading two drops of each composition over a one square inch area of skin just below one eye of each test subject and the other composition on the same spot beneath the other eye.

[1] = tested on: Trichoderma viride (ATCC 8678); conditions: ppm of active ingredient; "1" means 1 or fewer
[2] = tested on: Candida albicans (ATCC 10259); assay: minimum fungicidal concentration; assay type: cell-based; conditions: ppm of active ingredient; "1" means 1 or fewer
[3] = tested on: Lenzites trabea (ATCC 11539); assay: minimum fungicidal concentration; assay type: cell-based; conditions: ppm of active ingredient; "1" means 1 or fewer
[4] = tested on: Penicillium brevi compactum (ATCC 16024); conditions: ppm of active ingredient; "1" means 1 or fewer
[5] = tested on: Aspergillis terreus (ATCC 10609); assay: minimum fungicidal concentration; assay type: cell-based; conditions: ppm of active ingredient; "1" means 1 or fewer
[6] = tested on: rice spot (Helminthosporium orazae and Cerocospora orazae); assay type: in vivo; conditions: 33 ppm active; 0 no pathogen control to 10 complete
[7] = tested on: bean mildew (Erysiphe polygoni); assay: foliar spray on beans; assay type: in vivo; conditions: 33 ppm active; 0 no pathogen control to 10 complete
Text: (§1) The composition of Example 23 was screened for fungal pathogen response as a foliar spray on beans and rice. The rating scale is from 0 (no pathogen control) to 10 (complete pathogen control). The concentration of active ingredient (in a water carrier) of all compositions tested is 33 parts per million (ppm). The active ingredient in the composition of Example […] is expressed in terms of Cu-8-Q and the chemical as listed below for four comparative products. The comparative products tested were Karathane (2,4-dimitro-6-(2-octyl phenyl crotonate), Vitavax (5,6-dihydro-2-methyl-1,4-oxathiin-3-carboxanilide), Daconil (tetrachloroisophthalonitrile) and Maneb (manganese ethylenebisdithiocarbamate). The plants and diseases tested were bean mildew (Erysiphe polygoni), bean rust (Uromyces phaseoli typica) and rice spot (Helminthosporium orazae and Cerocospora orazae).
(§2) The rating scale is from 0 (no pathogen control) to 10 (complete pathegon control). The concentration of active ingredient (in a water carrier) of all compositions tested is 33 parts per million (ppm). The active ingredient in the composition of Example 4 is expressed in terms of Cu-8-Q and the chemical as listed below for four comparative products. […]

[8] = tested on: fungal stain and mold growth; assay: fungal stain and mold growth on dip-treated fresh-cut pine boards; conditions: 28 days
Procedure: In the examples that follow, the effectiveness of the various formulations was determined by treating freshly cut pine boards by dip immersion for 10 seconds in the formulation to be tested. The boards, along with an untreated control, were placed in a chamber for the period of time indicated and maintained at a temperature of about 80° F. and a humidity of about 70%.
At the end of the test period, the boards were removed from the chamber and rated for effectiveness in terms of percentage of total surface area covered by fungal stain and mold growth. Accordingly, the lower the percentage, the higher the effectiveness of the test formulation. […]
As further evidence of the effectiveness of antimicrobials prepared in accordance with this invention, a number of tests were conducted utilizing DDBSA as the disubstituted aryl compound of this invention as a solution with the below-listed microbicidal agents. […] Fresh-cut green pine test boards were dip-treated and evaluated for stain and mold after 30 days in the aforementioned constant atmosphere test chamber:
These compositions were diluted 1:200 with a water carrier for use, and freshly cut pine boards were dip immersed in the formulation to be tested. […] After the test period, the specimen boards were evaluated in terms of percentage of total surface area covered by fungal stain and mold growth.

rice seedling emergence = assay type: in vivo
Athlete's Foot = Athlete's Foot treatment; assay type: in vivo, human; conditions: one case; Toluaftate 1% twice daily for eight days
Text: The second formulation in the preceding Example was applied once daily by eight test subjects to the skin between the toes for control of "Athlete's Foot". […] Two of the cases had previously resisted control with several over-the-counter brand name antifungals. One of the two, a virulent infection, had reached the bleeding stage from deeply cracked skin and a bacterial infection started, despite twice daily application for eight days of a 1% solution of Toluaftate which has gained broad recognition for effective control of "Athlete's Foot".

[9] = tested on: bean rust (Uromyces phaseoli typica); assay: foliar spray on beans; assay type: in vivo; conditions: 33 ppm active; 0 no pathogen control to 10 complete
Text: as §1, §2

## Oc1cc(Cl)cc(Cl)c1Cl [2,3,5-trichlorophenol]
fungi
  antifungal efficacy improvement: significantly higher than would be expected

## Oc1ccc(Cl)cc1-c1ccccc1 [4-chloro-2-phenyl phenol]
P. aeruginosa
  phenol coefficient: less than 10

## CCCCNC(=O)n1c(NC(=O)OC)nc2ccccc21 [Benomyl, benomyl]
Ceratocystis pilifera; 150 ppm active
  % Emergency, Inoculated: 50%

## CCCCCCCCCCCCc1ccc(S(=O)(=O)O)cc1 [DDBSA, dodecyl benzene sulfonic acid]
Human skin
  skin sensation: almost immediate warm and uncomfortable sensation
[1]
  Minimum Fungicidal Concentration: 100 ppm
[2]
  Minimum Fungicidal Concentration: 1,000 ppm
[3]
  Minimum Fungicidal Concentration: 100 ppm
[4]
  Minimum Fungicidal Concentration: 100 ppm
[5]
  Minimum Fungicidal Concentration: 100 ppm

## N#Cc1c(Cl)c(Cl)c(Cl)c(C#N)c1Cl [Daconil, tetrachloroisophthalonitrile]
[6]
  Rice Spot rating: 10

## CC=CC(=O)Oc1c(C(C)CCCCCC)cc([N+](=O)[O-])cc1[N+](=O)[O-] (stereo not drawn) [Karathane, 2,4-dimitro-6-(2-octylphenyl crotonate]
[7]
  Bean Mildew rating: 10

## OB(O)O [Orthoboric acid]
[8]; 0.25% in water
  % Stain and Mold: 86%
[8]; 0.50% in water
  % Stain and Mold: 62%

## Oc1ccccc1-c1ccccc1 [Orthophenyl phenol]
fungi
  antifungal efficacy improvement: significantly higher than would be expected

## CC1=C(C(=O)Nc2ccccc2)SCCO1 [PRODUCT D, 5,6dihydro-2-methyl-1,4-oxathiim-3-carboxanilide]
Rice seedling emergence; 4 ounces/cwt, thirteen test plots
  Improvement over Control: 12.3%
Rice seedling emergence; in vivo
  Performance Consistency: 71.3

## N=C(N)NCCCCCCCCNCCCCCCCCNC(=N)N [Panoctine, 9-aza-1,17-diquanidinoheptadecane triacetate]
Ceratocystis pilifera; 50 ppm active
  % Emergency, Inoculated: 48%
Ceratocystis pilifera; 100 ppm active
  % Emergency, Inoculated: 48%
Ceratocystis pilifera; 200 ppm active
  % Emergency, Inoculated: 53%

## COC(=O)NC(=S)Nc1ccccc1NC(=S)NC(=O)OC [Thiophanate methyl, thiophanate methyl]
Ceratocystis pilifera; 50 ppm active
  % Emergency, Inoculated: 55%
Ceratocystis pilifera; 150 ppm active
  % Emergency, Inoculated: 51%
Ceratocystis pilifera; 300 ppm active
  % Emergency, Inoculated: 49%

## Cc1cccc(N(C)C(=S)Oc2ccc3ccccc3c2)c1 [Toluaftate]
Athlete's Foot
  control of resistant Athlete's Foot and bacterial infection: failed to control

## CC1=C(C(=O)Nc2ccccc2)SCCO1 [Vitavax, 5,6-dihydro-2-methyl-1,4-oxathiin-3-carboxanilide]
[9]
  Bean Rust rating: 9

## Oc1c(Cl)c(Cl)c(Cl)c(Cl)c1Cl [pentachlorophenol]
fungi
  antifungal efficacy improvement: significantly higher than would be expected

## manganese ethylenebisdithiocarbamate [Maneb]
[6]
  Rice Spot rating: 8

## tetrachlorophenol
fungi
  antifungal efficacy improvement: significantly higher than would be expected
